Tested on: Ramos cells
Assay: Cytotoxicity in Ramos cells
Type: cell-based
Details: Homo sapiens, read-out: Ramos Cell EC50
Procedure: Exemplary compounds described in above Examples were tested for activity against F1F0-ATPase by measuring the ability of the compounds to inhibit ATP synthesis. In addition, the compounds were assessed for cytotoxicity in Ramos cells. Inhibition of F1F0-ATPase activity in synthesizing ATP and cytotoxicity in Ramos cells were measured according to the procedures described in K. M. Johnson et al. Chemistry & Biology 2005, 12, 485-496.

SMILES | EC50 [µM]
O=C(/N=C(/Nc1cc(F)cc(Cl)c1)Nc1cc(C(F)(F)F)nn1-c1cccc(Cl)c1)c1ccc(C(F)(F)F)cc1 [Compound A-21] | < 10
Cc1cc(Cl)ccc1C(=O)/N=C(/Nc1cc(F)cc(Cl)c1)Nc1cc(C(F)(F)F)nn1C1CCCC1 [Compound A-41] | < 10
N#Cc1cccc(C(=O)/N=C(/Nc2cccc(Cl)c2)Nc2cc(C(F)(F)F)nn2C2CCCC2)c1 [Compound A-55] | < 10
O=C(/N=C(/Nc1cccc(Cl)c1)Nc1cc(C(F)(F)F)nn1-c1ccccc1)c1ccc(Cl)cc1 [Compound A-14] | < 10
O=C(/N=C(/Nc1cc(F)cc(Cl)c1)Nc1cc(C(F)(F)F)nn1C1CCCC1)c1ccccc1Cl [Compound A-56] | < 10
O=C(/N=C(/Nc1cc(F)cc(Cl)c1)Nc1cc(C(F)(F)F)nn1C1CCCC1)c1cc(F)c(Cl)cc1F [Compound A-40] | < 10
COc1ccc(C(=O)/N=C(/Nc2cccc(Cl)c2)Nc2cc(C(F)(F)F)nn2CCO)cc1 [Compound A-8] | < 10
COc1cc(O)cc(-n2nc(C(F)(F)F)cc2N/C(=N\C(=O)c2ccc(F)c(F)c2)Nc2cc(F)cc(Cl)c2)c1 [Compound A-34] | < 10
O=C(/N=C(/Nc1cc(F)cc(Cl)c1)Nc1cc(C(F)(F)F)nn1-c1ccc(F)cc1)c1ccc(Cl)cc1 [Compound A-16] | < 10
O=C(/N=C(/Nc1cc(F)cc(Cl)c1)Nc1cc(C(F)(F)F)nn1CC(O)CO)c1cccc(Cl)c1 (single isomer, unassigned) [Compound A-10] | < 10
O=C(/N=C(/Nc1cccc(C(F)(F)F)c1)Nc1cc(C(F)(F)F)nn1-c1ccc(F)cc1)c1ccc(Cl)cc1 [Compound A-18] | < 10
NC(=O)Cn1nc(C(F)(F)F)cc1N/C(=N\C(=O)c1ccc(C(F)(F)F)cc1)Nc1cc(F)cc(Cl)c1 [Compound A-6] | < 10
N#Cc1cccc(C(=O)/N=C(/Nc2cc(F)cc(Cl)c2)Nc2cc(C(F)(F)F)nn2C2CCCC2)c1 [Compound A-54] | < 10
Cc1c(Cl)cccc1C(=O)/N=C(/Nc1cc(F)cc(Cl)c1)Nc1cc(C(F)(F)F)nn1C1CCCC1 [Compound A-43] | < 10
O=C(/N=C(/Nc1cccc(Cl)c1)Nc1cc(C(F)(F)F)nn1-c1ccc(F)cc1)c1ccc(Cl)cc1 [Compound A-17] | < 10
O=C(/N=C(/Nc1cccc(C(F)(F)F)c1)Nc1cc(C(F)(F)F)nn1-c1ccccc1)c1ccc(Cl)cc1 [Compound A-15] | < 10
Cc1cc(F)ccc1C(=O)/N=C(/Nc1cc(F)cc(Cl)c1)Nc1cc(C(F)(F)F)nn1C1CCCC1 [Compound A-47] | < 10
O=C(/N=C(/Nc1cc(F)cc(Cl)c1)Nc1cc(C(F)(F)F)nn1-c1cc(O)cc(O)c1)c1ccc(F)c(F)c1 [Compound A-35] | < 10
O=C(/N=C(/Nc1cc(F)cc(Cl)c1)Nc1cc(C(F)(F)F)nn1C1CCCCC1)c1ccc(F)c(F)c1 [Compound A-28] | < 10

SMILES | EC50 [µM]
O=C(/N=C(/Nc1cc(F)cc(Cl)c1)Nc1cc(C(F)(F)F)nn1C1CCCC1)c1ccc(Cl)cc1F [Compound A-42] | < 10
N#Cc1ccc(C(=O)/N=C(/Nc2cccc(Cl)c2)Nc2cc(C(F)(F)F)nn2C2CCCC2)cc1 [Compound A-52] | < 10
O=C(/N=C(/Nc1cccc(Cl)c1F)Nc1cc(C(F)(F)F)nn1-c1cccc(Cl)c1)c1ccc(F)c(F)c1 [Compound A-22] | < 10
O=C(/N=C(/Nc1cc(F)cc(Cl)c1)Nc1ccnn1-c1ccccc1)c1cccc(Cl)c1 [Compound A-29] | < 10
O=C(/N=C(/Nc1cc(F)cc(Cl)c1)Nc1cc(C(F)(F)F)nn1-c1ccc(F)cc1)c1cccc(Cl)c1 [Compound A-19] | < 10
O=C(/N=C(/Nc1cc(F)cc(Cl)c1)Nc1cc(C(F)(F)F)nn1-c1cccnc1)c1cccc(Cl)c1 [Compound A-32] | < 10
Cc1c(C(F)(F)F)nn(-c2ccc(F)cc2)c1N/C(=N\C(=O)c1cccc(Cl)c1)Nc1cc(F)cc(Cl)c1 [Compound A-23] | < 10
O=C(/N=C(/Nc1cc(F)cc(Cl)c1)Nc1cc(C(F)(F)F)nn1CCO)c1ccc(C(F)(F)F)cc1 [Compound A-1] | < 10
CS(=O)(=O)N1CCC(n2nc(C(F)(F)F)cc2N/C(=N\C(=O)c2cccc(Cl)c2)Nc2cc(F)cc(Cl)c2)CC1 [Compound A-37] | < 10
Cc1c(C(F)(F)F)nn(-c2ccc(F)cc2)c1N/C(=N\C(=O)c1ccc(F)c(F)c1)Nc1cccc(Cl)c1F [Compound A-25] | < 10
O=C(/N=C(/Nc1cc(F)cc(Cl)c1)Nc1cc(C(F)(F)F)nn1C1CCOCC1)c1cccc(Cl)c1 [Compound A-36] | < 10
O=C(/N=C(/Nc1cc(F)cc(Cl)c1)Nc1cc(C(F)(F)F)nn1C1CCCC1)c1cccc(Cl)c1F [Compound A-44] | < 10
C=CCn1nc(C(F)(F)F)cc1N/C(=N\C(=O)c1cccc(Cl)c1)Nc1cc(F)cc(Cl)c1 [Compound A-12] | < 10
O=C(/N=C(/Nc1cc(F)cc(Cl)c1)Nc1cc(C(F)(F)F)nn1C1CCCC1)c1cccc(F)c1 [Compound A-50] | < 10
O=C(O)Cn1nc(C(F)(F)F)cc1N/C(=N\C(=O)c1ccc(C(F)(F)F)cc1)Nc1cc(F)cc(Cl)c1 [Compound A-5] | < 10
O=C(/N=C(/Nc1cc(F)cc(Cl)c1)Nc1cc(C(F)(F)F)nn1C1CCCC1)c1c(F)cccc1F [Compound A-48] | < 10
COc1cc(OC)cc(-n2nc(C(F)(F)F)cc2N/C(=N\C(=O)c2ccc(F)c(F)c2)Nc2cc(F)cc(Cl)c2)c1 [Compound A-31] | < 10
Cc1c(C(F)(F)F)nn(-c2ccc(F)cc2)c1N/C(=N\C(=O)c1ccc(C(F)(F)F)cc1)Nc1cc(F)cc(Cl)c1 [Compound A-24] | < 10
O=C(/N=C(/Nc1cccc(Cl)c1)Nc1cc(C(F)(F)F)nn1C1CCCC1)c1ccccc1Cl [Compound A-57] | < 10

SMILES | EC50 [µM]
N#CCCn1nc(C(F)(F)F)cc1N/C(=N\C(=O)c1ccc(C(F)(F)F)cc1)Nc1cc(F)cc(Cl)c1 [Compound A-2] | < 10
O=C(/N=C(/Nc1cc(F)cc(Cl)c1)Nc1cc(C(F)(F)F)nn1-c1cccc(Cl)c1)c1cccc(Cl)c1 [Compound A-20] | < 10
COc1ccc(C(=O)/N=C(/Nc2cccc(C(F)(F)F)c2)Nc2cc(C(F)(F)F)nn2CCO)cc1 [Compound A-9] | < 10
COc1cccc(C(=O)/N=C(/Nc2cc(F)cc(Cl)c2)Nc2cc(C(F)(F)F)nn2C2CCCC2)c1 [Compound A-49] | < 10
N#Cc1ccc(C(=O)/N=C(/Nc2cc(F)cc(Cl)c2)Nc2cc(C(F)(F)F)nn2C2CCCC2)cc1 [Compound A-51] | < 10
O=C(/N=C(/Nc1cc(F)cc(Cl)c1)Nc1ccnn1-c1ccccc1)c1ccc(F)c(F)c1 [Compound A-30] | < 10
O=C(/N=C(/Nc1cc(F)cc(Cl)c1)Nc1cc(C(F)(F)F)nn1C1CCCCC1)c1cccc(Cl)c1 [Compound A-27] | < 10
O=C(/N=C(/Nc1cc(F)cc(Cl)c1)Nc1cc(C(F)(F)F)nn1-c1ccccc1)c1ccc(Cl)cc1 [Compound A-13] | < 10
O=C(/N=C(/Nc1cc(F)cc(Cl)c1)Nc1cc(C(F)(F)F)nn1C1CCCC1)c1ccc(Cl)c(F)c1 [Compound A-45] | < 10
CCOC(=O)Cn1nc(C(F)(F)F)cc1N/C(=N\C(=O)c1ccc(C(F)(F)F)cc1)Nc1cc(F)cc(Cl)c1 [Compound A-4] | < 10
O=C(/N=C(/Nc1cc(F)cc(Cl)c1)Nc1cc(C(F)(F)F)nn1C1CCCC1)c1cc(F)c(Cl)cc1Cl [Compound A-39] | < 10
O=C(N=C(Nc1cc(F)cc(Cl)c1)Nc1cc(C(F)(F)F)nn1C1CCCC1)c1ccc(Cl)cc1 [Compound A-58, 4-chloro-N-(((3-chloro-5-fluorophenyl)amino)((1-cyclopentyl-3-(trifluoromethyl)-1H-pyrazol-5-yl)amino)methylene)benzamide] | < 10
COC(=O)N1CCC(n2nc(C(F)(F)F)cc2N/C(=N\C(=O)c2cccc(Cl)c2)Nc2cc(F)cc(Cl)c2)CC1 [Compound A-38] | < 10
O=C(/N=C(/Nc1cc(F)cc(Cl)c1)Nc1cc(C(F)(F)F)nn1C1CCCC1)c1cccc(Cl)c1 [Compound A-26] | < 10
O=C(/N=C(/Nc1cc(F)cc(Cl)c1)Nc1cc(C(F)(F)F)nn1C1CCCC1)c1ccc(F)c(F)c1 [Compound A-33] | < 10
O=C(/N=C(/Nc1cc(F)cc(Cl)c1)Nc1cc(C(F)(F)F)nn1C1CCCC1)c1ccc(Cl)cc1Cl [Compound A-46] | < 10
CC(O)Cn1nc(C(F)(F)F)cc1N/C(=N\C(=O)c1ccc(C(F)(F)F)cc1)Nc1cc(F)cc(Cl)c1 (stereo not shown) [Compound A-3] | < 10
O=C(/N=C(/Nc1cccc(Cl)c1)Nc1cc(C(F)(F)F)nn1C1CCCC1)c1ccc(Cl)cc1 [Compound A-53] | < 10
Cc1c(C(F)(F)F)nn(CCO)c1N/C(=N\C(=O)c1ccc(C(F)(F)F)cc1)Nc1cc(F)cc(Cl)c1 [Compound A-7] | < 10

Same assay, conditions: read-out: Ramos Cell EC50

SMILES | EC50 [µM]
O=C(/N=C(/Nc1cc(F)cc(Cl)c1)Nc1cc(C(F)(F)F)nn1CC(O)CO)c1cccc(Cl)c1 (single isomer, unassigned) [Compound A-11] | < 10

Reference: US9914706B2, “N-substituted pyrazolyl guanidine F1F0-ATPase inhibitors and therapeutic uses thereof” (Lycera Corporation, priority 2013, dated 2018)
